Read-outs that look alike come from different tables or passages of the source.
Key:
OCI-AML3 cells = test: Proliferation assay, OCI-AML3 (CellTiter-Glo, 7 days); format: cell-based, human
Summary of the method: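 Cells were seeded at line-specific low densities for linear growth, exposed to 3.16-fold serial compound dilutions at 0.1% DMSO, and incubated 7 days at 37 °C, 5% CO2. Viability was read by CellTiter-Glo 2.0 luminescence; IC50 came from one-site fits of % inhibition, normalized between DMSO-treated cells (100%) and a day-0 plate (0%).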

[1] = Caco-2 cell monolayers intrinsic permeation assay in the presence of efflux inhibitors; format: in vitro ADME; conditions: Caco-2, with efflux inhibitors
Excerpt: Caco-2 cells were obtained from American Type Culture Collection (ATCC). HEPES, penicillin, streptomycin, bovine serum albumin (BSA) were obtained from Beijing Xinjingke Biotechnology Co, Ltd. Fetal bovine serum, Hank's balanced salt solution (HBSS) and non-essential amino acids (NEAA) were purchased from Gibco. Dulbecco's Modified Eagle's Medium (DMEM) was purchased from Corning and MES from Sigma. HTS Transwell-24 permeable supports were purchased from Corning. Zosuquidar and Ko-143 were obtained from MedChemExpress and Benzbromarone from Sigma.
The Caco-2 cell culture medium consisted of DMEM with high glucose and L-glutamine supplemented with 10% FBS, 0.1 mg/mL streptomycin, 100 units of penicillin, 0.6 mg/mL kanamycin sulfate and 1×NEAA. […] culture medium was added to each Transwell insert with 800 mL added to each well of the reservoir. After incubation at 37° C. in 5% CO2 for 1 hour, the plates were ready for seeding.
The cells were cultivated in T-75 flasks at 37° C., 5% CO2, 95% relative humidity. At 80 to 90% confluence, cells were treated with trypsin/EDTA treatment until they became detached. The trypsin/EDTA was inactivated by adding excess serum containing medium. The cell suspension was centrifuged at 120 g for 10 minutes followed by resuspension of the cell pellet in seeding medium at a cell density of 7.92×10^5 cells/mL.
[…] of the resulting cell suspension was added to each well of the Transwell plate and incubated for 14 to 18 days, with medium replaced every other day. After incubation for 14 to 18 days, the cells should have reached confluence and should be tested for electrical resistance using a Millicel Epithelial Volt-Ohm measuring system (Millipore).
The cell monolayers were washed twice with pre-warmed HBSS and incubated at 37° C. for 30 minutes under gentle shaking (480 rpm).
The compound under test was presented as a 10 mM DMSO stock solution. 2 mL of the 10 mM stock was added to 8 mL DMSO to produce a 2 mM stock. 2 mL was added to 398 mL of HBSS containing 10 mM Zosuquidar, 30 mM Benzbromarone and 2 mM KO-143 to make a […] solution.
210 mL of the test compound solution was added to the apical compartment of the Transwell plate, with a 10 mL sample taken to act as the time 0 sample. The wells of the receiver (basolateral) compartment were filled with 800 mL HBSS (containing the efflux inhibitors). The plates were incubated at 37° C. with shaking at 480 rpm for 120 minutes with sampling at 45 and 120 minutes.
At each sampling time (0, 45 and 120 minutes) 10 mL was removed from the apical compartment and add to 90 mL (HBSS containing the efflux inhibitors). 100 mL was removed from each basolateral compartment. 3 volumes of cold acetonitrile containing internal standard was added to each sample and vortex mixed for 10 minutes at 100 rpm. Samples were then centrifuged at 400 rpm for 20 minutes. 50 mL of the supernatant was taken for LC/MS/MS analysis to determine compound concentration.
The apparent permeability (Papp), in units of centimetre per second, were calculated for Caco-2 drug transport using the following equation: […]
Where CR is the concentration of compound in the receiver side at the respective time point, CD is the concentration of compound in the donor side at the respective timepoint. Area is the surface area of the membrane and time is 4500 seconds (75×60 seconds).

muscarinic M2 receptor = muscarinic M2 receptor (Homo sapiens (Human), UniProt P08172); test: Muscarinic M2 receptor binding assay (assay 1); conditions: [3H]AF-DX 384 2 nM, Cheng Prusoff
Protocol: Cell membrane homogenates (60 μg protein) were incubated for 60 minutes at 22° C. with 2 nM [3H]AF-DX 384 in the absence or presence of the test compound in a buffer containing 50 mM Tris-HCl (pH 7.4), 120 mM NaCl, 5 mM KCl, 5 mM MgCl2, and 1 mM EDTA. Nonspecific binding was determined in the presence of 1 μM atropine. Following incubation, the samples were filtered rapidly under vacuum through glass fiber filters (GF/B, Packard) presoaked with 0.3% PEI and rinsed several times with ice-cold 50 mM Tris-HCl using a 96-sample cell harvester (Unifilter, Packard). The filters were dried then counted for radioactivity in a scintillation counter (Topcount, Packard) using a scintillation cocktail (Microscint 0, Packard). The results were expressed as a percent inhibition of the control radioligand specific binding, from which the Ki was calculated. Data were analyzed using software developed at Cerep (Hill software) and validated by comparison with data generated by the commercial software SigmaPlot®4.0 for Windows® (© 1997 by SPSS Inc.). The inhibition constant, Ki, was calculated using the Cheng Prusoff equation:
where L=concentration of ligand in the assay, and Kd=affinity of the ligand for the receptor. The standard reference compound was methoctramine, which was tested in each experiment at several concentrations to obtain a competition curve from which its IC50 was calculated.

muscarinic M2 receptor, sequence (P08172 whole entry): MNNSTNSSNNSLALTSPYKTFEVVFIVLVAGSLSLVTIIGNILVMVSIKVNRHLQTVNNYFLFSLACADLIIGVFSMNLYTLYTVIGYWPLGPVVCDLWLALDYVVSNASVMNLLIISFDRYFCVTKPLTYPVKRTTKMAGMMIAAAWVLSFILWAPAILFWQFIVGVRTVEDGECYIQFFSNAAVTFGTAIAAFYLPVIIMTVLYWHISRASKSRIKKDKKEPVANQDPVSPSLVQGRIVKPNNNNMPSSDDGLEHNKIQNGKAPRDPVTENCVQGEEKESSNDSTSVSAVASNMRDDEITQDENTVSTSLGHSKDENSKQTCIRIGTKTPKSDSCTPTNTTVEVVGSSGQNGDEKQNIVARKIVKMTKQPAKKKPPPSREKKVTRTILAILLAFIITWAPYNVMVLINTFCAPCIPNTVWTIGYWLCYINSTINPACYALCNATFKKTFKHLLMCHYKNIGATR

Structure (SMILES)	IC50 (OCI-AML3 cells)	Papp A→B [1]	IC50 (OCI-AML3 cells; Homo sapiens, OCI-AML-3, 168 h)	Ki (muscarinic M2 receptor)
CCN(C(=O)c1cc(F)ccc1-n1c(C)c(C(=O)[C@@H]2CCN(C(=O)[C@@H]3CCC4(CC4)N3)[C@@H](C)C2)c2ccncc21)C(C)C (single isomer, unassigned) [Example 52-1, N-Ethyl-5-fluoro-N-isopropyl-2-(2-methyl-3-((2R*,4S*)-2-methyl-1-((S)-4-azaspiro[2.4]heptane-5-carbonyl)piperidine-4-carbonyl)-1H-pyrrolo[2,3-c]pyridin-1-yl)benzamide]	0.04 µM	10.9 ×10⁻⁶ cm/s		
Cc1c(C(=O)C2CCN(C(=O)[C@H]3NC[C@@H]4C[C@@H]43)CC2)c2ccncc2n1-c1ccc(F)cc1C(=O)N(CC(F)(F)F)C(C)C (single isomer, unassigned) [Example 51-2]			0.037 µM	30.7 µM
Cc1c(C(=O)[C@@H]2CCN(C(=O)[C@@H]3CC[C@@H](C)N3)[C@@H](C)C2)c2ccncc2n1-c1ccc(F)cc1C(=O)N(C(C)C)C(C)C (stereo in doubt) [Example 64, 5-Fluoro-N,N-diisopropyl-2-(2-methyl-3-((2S,4RS)-2-methyl-1-((2S,5R)-5-methylpyrrolidine-2-carbonyl)piperidine-4-carbonyl)-1H-pyrrolo[2,3-c]pyridin-1-yl)benzamide]		4.3 ×10⁻⁶ cm/s	0.313 µM	
Cc1c(C(=O)C2CCN(C(=O)[C@H]3NC[C@@H]4C[C@@H]43)CC2)c2ccncc2n1-c1ccc(F)cc1C(=O)N(C(C)C)[C@H](C)C(F)(F)F (single isomer, unassigned) [Example 57-1]			0.077 µM	> 100 µM
CCN(C(=O)c1cc(F)ccc1-n1c(C)c(C(=O)[C@@H]2CCN(C(=O)[C@@H]3CC[C@@H](C)N3)[C@@H](C)C2)c2ccncc21)C(C)C (stereo in doubt) [Example 65, N-Ethyl-5-fluoro-N-isopropyl-2-(2-methyl-3-((2S,4RS)-2-methyl-1-((2S,5R)-5-methylpyrrolidine-2-carbonyl)piperidine-4-carbonyl)-1H-pyrrolo[2,3-c]pyridin-1-yl)benzamide]		1.7 ×10⁻⁶ cm/s	0.126 µM	
CC(C)N(C(=O)c1cc(F)ccc1-n1cc(C(=O)[C@@H]2CCN(C[C@H]3CC[C@H](NS(C)(=O)=O)CC3)C2)c2ccncc21)C(C)C [Example 4, 5-Fluoro-N,N-diisopropyl-2-(3-((R)-1-(((1r,4R)-4-(methylsulfonamido)-cyclohexyl)methyl)pyrrolidine-3-carbonyl)-1H-pyrrolo[2,3-c]pyridin-1-yl)benzamide]		2 ×10⁻⁶ cm/s	0.223 µM	
CCN(C(=O)c1cc(F)ccc1-n1cc(C(=O)C2CN(C(=O)[C@H]3NC4CCC3CC4)C2)c2ccncc21)C(C)C [Example 9, (S)-2-(3-(1-(2-Azabicyclo[2.2.2]octane-3-carbonyl)azetidine-3-carbonyl)-1H-pyrrolo[2,3-c]pyridin-1-yl)-N-ethyl-5-fluoro-N-isopropylbenzamide]		0.5 ×10⁻⁶ cm/s	0.225 µM	
CCN(C(=O)c1cc(F)ccc1-n1c(C)c(C(=O)[C@@H]2CCN(C(=O)[C@@H]3CCC4(CC4)N3)[C@@H](C)C2)c2ccncc21)C(C)C (single isomer, unassigned) [Example 52-2, N-Ethyl-5-fluoro-N-isopropyl-2-(2-methyl-3-((2R*,4S*)-2-methyl-1-((S)-4-azaspiro[2.4]heptane-5-carbonyl)piperidine-4-carbonyl)-1H-pyrrolo[2,3-c]pyridin-1-yl)benzamide]	0.082 µM			
CCN(C(=O)c1cc(F)ccc1-n1cc(C(=O)C2CCN(C(=O)[C@H]3N[C@H]4C[C@@H]3[C@@H](F)C4)CC2)c2ccncc21)C(C)C [Example 30, N-Ethyl-5-fluoro-2-(3-(1-((1S,3S,4S,5S)-5-fluoro-2-azabicyclo[2.2.1]heptane-3-carbonyl)piperidine-4-carbonyl)-1H-pyrrolo[2,3-c]pyridin-1-yl)-N-isopropylbenzamide]		0.8 ×10⁻⁶ cm/s	0.059 µM	
CC(C)N(C(=O)c1cc(F)ccc1-n1cc(C(=O)C2CCN(C[C@H]3CC[C@H](NS(C)(=O)=O)CC3)CC2)c2ccncc21)C(C)C [Example 17, 5-Fluoro-N,N-diisopropyl-2-(3-(1-(((1r,4r)-4-(methylsulfonamido)cyclohexyl)-methyl)piperidine-4-carbonyl)-1H-pyrrolo[2,3-c]pyridin-1-yl)benzamide]		1.8 ×10⁻⁶ cm/s	0.356 µM	
Cc1c(C(=O)C2CCN(C(=O)[C@@H]3CCC(C)(C)N3)CC2)c2ccncc2n1-c1ccc(F)cc1C(=O)N(C(C)C)C(C)C (single isomer, unassigned) [Example 56-1]		2.8 ×10⁻⁶ cm/s		7.4 µM
CCN(C(=O)c1cc(F)ccc1-n1c(C)c(C(=O)C2CCN(C(=O)[C@H]3N[C@@H]4CC[C@H]3C4)CC2)c2ccncc21)C(C)C [Example 46, 2-(3-(1-((1R,3S,4S)-2-Azabicyclo[2.2.1]heptane-3-carbonyl)piperidine-4-carbonyl)-2-methyl-1H-pyrrolo[2,3-c]pyridin-1-yl)-N-ethyl-5-fluoro-N-isopropylbenzamide]		0.3 ×10⁻⁶ cm/s		7.1 µM
CC(C)N(C(=O)c1cc(F)ccc1-n1cc(C(=O)[C@@H]2CCN(C(=O)[C@H]3N[C@@H]4CC[C@H]3C4)C2)c2ccncc21)C(C)C [Example 3, 2-(3-((R)-1-((1R,3S,4S)-2-Azabicyclo[2.2.1]heptane-3-carbonyl)pyrrolidine-3-carbonyl)-1H-pyrrolo[2,3-c]pyridin-1-yl)-5-fluoro-N,N-diisopropylbenzamide]		0.3 ×10⁻⁶ cm/s	0.113 µM	
CC(C)N(C(=O)c1cc(F)ccc1-n1cc(C(=O)C2CCN(C(=O)[C@H]3N[C@H]4C[C@@H]3[C@@H](F)C4)CC2)c2ccncc21)C(C)C [Example 22, 5-Fluoro-2-(3-(1-((1S,3S,4S,5S)-5-fluoro-2-azabicyclo[2.2.1]heptane-3-carbonyl)piperidine-4-carbonyl)-1H-pyrrolo[2,3-c]pyridin-1-yl)-N,N-diisopropylbenzamide]		3 ×10⁻⁶ cm/s		0.7 µM
CC(C)n1nccc1-c1cc(F)ccc1-n1cc(C(=O)C2CCN(C(=O)[C@H]3N[C@@H]4CC[C@H]3C4)CC2)c2ccncc21 [Example 36, (1-((1R,3S,4S)-2-Azabicyclo[2.2.1]heptane-3-carbonyl)piperidin-4-yl)(1-(4-fluoro-2-(1-isopropyl-1H-pyrazol-5-yl)phenyl)-1H-pyrrolo[2,3-c]pyridin-3-yl)methanone]		0.6 ×10⁻⁶ cm/s		1.2 µM
CC(C)c1ncncc1-c1cc(F)ccc1-n1cc(C(=O)C2CCN(C(=O)[C@H]3N[C@@H]4CC[C@H]3C4)CC2)c2ccncc21 [Example 37, (1-((1R,3S,4S)-2-Azabicyclo[2.2.1]heptane-3-carbonyl)piperidin-4-yl)(1-(4-fluoro-2-(4-isopropylpyrimidin-5-yl)phenyl)-1H-pyrrolo[2,3-c]pyridin-3-yl)methanone]		1 ×10⁻⁶ cm/s		0.3 µM

From patent publication US20240335431A1, “1-H-PYRROLO[2,3-c]PYRIDINE COMPOUNDS” (Acerta Pharma B.V., priority 2023, published 2024)
